Earlier results, collected in patent EP0084011B1, “Quinoline carboxylic acid complexes with guanidinium carbonate and guanidine” (Merck & Co., Inc., priority 1982, dated 1983).
Converted amounts (≈) assume the structure as drawn.

In the case of `CCn1cc(C(=O)O)c(=O)c2cc(F)c(N3CCNCC3)cc21` [Parent, 1-ethyl-6-fluoro-1,4-dihydro-4-oxo-7-(1-piperazinyl)-3-quinoline carboxylic acid], the Solubility (in water, 25 °C, reported water solubility of the parent compound) is given as 200 µg/mL (≈ 626 µM) and the water solubility (pH range of 6-10, background statement) is given as “very low water solubility”.
